Laboratory results as given in patent publication US7910740B2, “Modulators of amyloid beta” (Hoffmann-La Roche Inc., priority 2007, dated 2011).

Test system: γ-secretase
Test: Cellular γ-secretase assay (inhibition of Aβ42 secretion)
Assay type: cell-based
Conditions: human neuroglioma H4 cells overexpressing human APP, incubation for 22 hrs, read-out: IC50 in vitro
Description: Cellular γ-Secretase Assay
Human neuroglioma H4 cells overexpressing human APP were plated at 30,000 cells/well/200 μl in 96-well plates in IMDM media containing 10% FCS, 0.2 mg/l Hygromycin B and incubated for 2 h at 37° C., 5% CO2 prior to adding test compounds.
Compounds for testing were dissolved in 100% Me2SO yielding in a 10 mM stock solution.
Typically 12 μl of these solutions were further diluted in 1000 μl of IMDM media (w/o FCS,). Sub sequential 1:1 dilutions gave a ten point dose response curve. 100 μl of each dilution was added to the cells in 96-well plates. Appropriate controls using vehicle only and reference compound were applied to this assay. The final concentration of Me2SO was 0.4%.
After incubation for 22 hrs at 37° C., 5% CO2, 50 μl supernatant was transferred into round-bottom 96-well polypropylene plates for detection of Aβ42. 50 μl assay buffer (50 mM Tris/Cl, pH 7.4, 60 mM NaCl, 0.5% BSA, 1% TWEEN 20) was added to the wells followed by the addition of 100 μl of detection antibody (ruthenylated BAP15 0.0625 μg/ml in assay buffer). 50 μl of a premix of capture antibody (biotinylated 6E10 antibody, 1 μg/ml) and Steptavidin-coated magnetic beads (Dynal M-280, 0.125 mg/ml) were preincubated for 1 hr at room temperature before adding the assay plates. Assay plates were incubated on a shaker for 3 hrs at room temperature and finally read in the Bioveris M8 Analyser according to the manufacturer's instructions (Bioveris).
IC50 values for inhibition of Aβ42 secretion were calculated by nonlinear regression fit analysis using XLfit 4.0 software (IDBS).

Row | SMILES | IC50
1 | COc1cc(Nc2nc(C)c(Cc3cccc(Cl)c3)s2)ccc1-n1cnc(C)c1 [Example 1, [5-(3-Chloro-benzyl)-4-methyl-thiazol-2-yl]-[3-methoxy-4-(4-methyl-imidazol-1-yl)-phenyl]-amine] | 0.21 µM
2 | COc1cc(Nc2nc(C)c(Cc3ccc(Cl)cc3)s2)ccc1-n1cnc(C)c1 [Example 2, [5-(4-Chloro-benzyl)-4-methyl-thiazol-2-yl]-[3-methoxy-4-(4-methyl-imidazol-1-yl)-phenyl]-amine] | 0.24 µM
3 | Cc1cn(-c2ccc(Nc3nc(C)c(Cc4cccc(Cl)c4)s3)cc2C#N)cn1 [Example 4, 5-[5-(3-Chloro-benzyl)-4-methyl-thiazol-2-ylamino]-2-(4-methyl-imidazol-1-yl)-benzonitrile] | 0.75 µM
4 | COc1cc(Nc2nc(C)c(Cc3ccc(C#N)cc3)s2)ccc1-n1cnc(C)c1 [Example 6, 4-{2-[3-Methoxy-4-(4-methyl-imidazol-1-yl)-phenylamino]-4-methyl-thiazol-5-ylmethyl}-benzonitrile] | 0.87 µM
5 | COc1cc(Nc2nc(C)c(Cc3ccccc3Cl)s2)ccc1-n1cnc(C)c1 [Example 7, [5-(2-Chloro-benzyl)-4-methyl-thiazol-2-yl]-[3-methoxy-4-(4-methyl-imidazol-1-yl)-phenyl]-amine] | 0.52 µM
6 | COc1cc(Nc2nc(C)c(Cc3ccc(C(C)(C)C)cc3)s2)ccc1-n1cnc(C)c1 [Example 8, [5-(4-tert-Butyl-benzyl)-4-methyl-thiazol-2-yl]-[3-methoxy-4-(4-methyl-imidazol-1-yl)-phenyl]-amine] | 0.57 µM
7 | COc1cc(Nc2nc(C)c(Cc3cccc(C(F)(F)F)c3)s2)ccc1-n1cnc(C)c1 [Example 9, [3-Methoxy-4-(4-methyl-imidazol-1-yl)-phenyl]-[4-methyl-5-(3-trifluoromethyl-benzyl)-thiazol-2-yl]-amine] | 0.92 µM
8 | COc1ccc(Br)cc1-c1csc(Nc2ccc(-n3cnc(C)c3)c(OC)c2)n1 [Example 16, [4-(5-Bromo-2-methoxy-phenyl)-thiazol-2-yl]-[3-methoxy-4-(4-methyl-imidazol-1-yl)-phenyl]-amine] | 0.9 µM
9 | COc1ccc(Br)cc1-c1csc(Nc2ccc(-n3cnc(C)c3)cc2)n1 [Example 21, [4-(5-Bromo-2-methoxy-phenyl)-thiazol-2-yl]-[4-(4-methyl-imidazol-1-yl)-phenyl]-amine] | 0.88 µM
10 | COc1ccc(Br)cc1-c1csc(Nc2ccc(-n3ccnc3)c(OC)c2)n1 [Example 22, [4-(5-Bromo-2-methoxy-phenyl)-thiazol-2-yl]-(4-imidazol-1-yl-3-methoxy-phenyl)-amine] | 0.79 µM
11 | COc1cc(Nc2nc(CC(=O)Nc3ccc(F)cc3)cs2)ccc1-n1cnc(C)c1 [Example 29, N-(4-Fluoro-phenyl)-2-{2-[3-methoxy-4-(4-methyl-imidazol-1-yl)-phenylamino]-thiazol-4-yl}-acetamide] | 0.95 µM
12 | COc1cc(Nc2nc([C@H](CC(C)C)NC(=O)OC(C)(C)C)cs2)ccc1-n1cnc(C)c1 [Example 30, ((S)-1-{2-[3-Methoxy-4-(4-methyl-imidazol-1-yl)-phenylamino]-thiazol-4-yl}-3-methyl-butyl)-carbamic acid tert-butyl ester] | 0.39 µM
13 | COc1cc(Nc2nc([C@H](CC(C)C)NC(=O)Cc3ccc(F)cc3)cs2)ccc1-n1cnc(C)c1 [Example 34, 2-(4-Fluoro-phenyl)-N—((S)-1-{2-[3-methoxy-4-(4-methyl-imidazol-1-yl)-phenylamino]-thiazol-4-yl}-3-methyl-butyl)-acetamide] | 0.52 µM
14 | COc1cc(Nc2nc([C@H](CC(C)C)NC(=O)c3ccc(F)cc3)cs2)ccc1-n1cnc(C)c1 [Example 37, 4-Fluoro-N—((S)-1-{2-[3-methoxy-4-(4-methyl-imidazol-1-yl)-phenylamino]-thiazol-4-yl}-3-methyl-butyl)-benzamide] | 0.41 µM
15 | COc1cc(Nc2nc([C@H](CC(C)C)NC(=O)CC(F)(F)F)cs2)ccc1-n1cnc(C)c1 [Example 38, 3,3,3-Trifluoro-N—((S)-1-{2-[3-methoxy-4-(4-methyl-imidazol-1-yl)-phenylamino]-thiazol-4-yl}-3-methyl-butyl)-propionamide] | 0.29 µM
16 | COc1cc(Nc2nc([C@H](CC(C)C)NS(=O)(=O)c3ccc(F)cc3)cs2)ccc1-n1cnc(C)c1 [Example 39, 4-Fluoro-N—((S)-1-{2-[3-methoxy-4-(4-methyl-imidazol-1-yl)-phenylamino]-thiazol-4-yl}-3-methyl-butyl)-benzene sulfonamide] | 0.91 µM
17 | COc1cc(Nc2nc([C@H](CC(C)C)NS(=O)(=O)Cc3ccccc3)cs2)ccc1-n1cnc(C)c1 [Example 40, N—((S)-1-{2-[3-Methoxy-4-(4-methyl-imidazol-1-yl)-phenylamino]-thiazol-4-yl}-3-methyl-butyl)-C-phenyl-methanesulfonamide] | 0.55 µM
18 | COc1cc(Nc2nc([C@H](CC(C)C)NS(C)(=O)=O)cs2)ccc1-n1cnc(C)c1 [Example 41, N—((S)-1-{2-[3-Methoxy-4-(4-methyl-imidazol-1-yl)-phenylamino]-thiazol-4-yl}-3-methyl-butyl)-methane sulfonamide] | 0.9 µM
19 | CCOC(=O)c1sc(Nc2ccc(-n3cnc(C)c3)c(OC)c2)nc1C(F)(F)F [Example 42, 2-[3-Methoxy-4-(4-methyl-imidazol-1-yl)-phenylamino]-4-trifluoromethyl-thiazole-5-carboxylic acid ethyl ester] | 0.64 µM
20 | COc1cc(Nc2nc3c(s2)CN(C(=O)OC(C)(C)C)CC3)ccc1-n1cnc(C)c1 [Example 43, 2-[3-Methoxy-4-(4-methyl-imidazol-1-yl)-phenylamino]-6,7-dihydro-4H-thiazolo[5,4-c]pyridine-5-carboxylic acid tert-butyl ester] | 0.79 µM
21 | COc1cc(Nc2nc([C@H](Cc3ccccc3)NS(=O)(=O)c3ccc(C)cc3)cs2)ccc1-n1cnc(C)c1 [Example 55, N—((S)-1-{2-[3-Methoxy-4-(4-methyl-imidazol-1-yl)-phenylamino]-thiazol-4-yl}-2-phenyl-ethyl)-4-methyl-benzenesulfonamide] | 0.8 µM
22 | COc1cc(Nc2ncc(C(O)c3ccccc3)s2)ccc1-n1cnc(C)c1 (centres unmarked) [Example 62, {2-[3-Methoxy-4-(4-methyl-imidazol-1-yl)-phenylamino]-thiazol-5-yl}-phenyl-methanol] | 0.57 µM
23 | COc1cc(Nc2nc(C)c(Cc3ccc(Cl)c(C(F)(F)F)c3)s2)ccc1-n1cnc(C)c1 [Example 68, [5-(4-Chloro-3-trifluoromethyl-benzyl)-4-methyl-thiazol-2-yl]-[3-methoxy-4-(4-methyl-imidazol-1-yl)-phenyl]-amine] | 0.89 µM
24 | COc1cc(Nc2nc(C)c(Cc3cccc(OC(F)(F)C(F)F)c3)s2)ccc1-n1cnc(C)c1 [Example 69, [3-Methoxy-4-(4-methyl-imidazol-1-yl)-phenyl]-{4-methyl-5-[3-(1,1,2,2-tetrafluoro-ethoxy)-benzyl]-thiazol-2-yl}-amine] | 0.73 µM
25 | COc1cc(Nc2nc(C)c(Cc3ccc(C)c(Cl)c3)s2)ccc1-n1cnc(C)c1 [Example 70, [5-(3-Chloro-4-methyl-benzyl)-4-methyl-thiazol-2-yl]-[3-methoxy-4-(4-methyl-imidazol-1-yl)-phenyl]-amine] | 0.71 µM
26 | COc1cc(Nc2nc(C)c(Cc3ccc(Cl)c(Cl)c3)s2)ccc1-n1cnc(C)c1 [Example 71, [5-(3,4-Dichloro-benzyl)-4-methyl-thiazol-2-yl]-[3-methoxy-4-(4-methyl-imidazol-1-yl)-phenyl]-amine] | 0.28 µM
27 | COc1cc(Nc2ncc(C(O)c3ccc(Cl)cc3)s2)ccc1-n1cnc(C)c1 (centres unmarked) [Example 76, (4-Chloro-phenyl)-{2-[3-methoxy-4-(4-methyl-imidazol-1-yl)-phenylamino]-thiazol-5-yl}-methanol] | 0.34 µM
28 | COc1cc(Nc2nc(C(C)(C)c3ccc(Cl)cc3)cs2)ccc1-n1cnc(C)c1 [Example 77, {4-[1-(4-Chloro-phenyl)-1-methyl-ethyl]-thiazol-2-yl}-[3-methoxy-4-(4-methyl-imidazol-1-yl)-phenyl]-amine] | 0.14 µM
29 | COc1cc(Nc2nc(C(C)(C)c3cc(F)c(F)c(F)c3)cs2)ccc1-n1cnc(C)c1 [Example 78, [3-Methoxy-4-(4-methyl-imidazol-1-yl)-phenyl]-{4-[1-methyl-1-(3,4,5-trifluoro-phenyl)-ethyl]-thiazol-2-yl}-amine] | 0.68 µM
